Reference: ChEMBL document CHEMBL1177851, “Some new biologically active metal-based sulfonamide” (Eur J Med Chem, 2010)
Values after ≈ are worked out from the molar mass of the structure shown.

How the values were obtained:
Pseudomonas aeruginosa = assay: Antibacterial activity against Pseudomonas aeruginosa at 50 ug/ml after 24 hrs by agar-well diffusion assay; type: functional; conditions: read-out: IZ
Salmonella enterica = assay: Antibacterial activity against Salmonella typhi at 50 ug/ml after 24 hrs by agar-well diffusion assay; type: functional, Salmonella enterica subsp. enterica serovar Typhi; conditions: read-out: IZ
Shigella flexneri = assay: Antibacterial activity against Shigella flexneri at 50 ug/ml after 24 hrs by agar-well diffusion assay; type: functional; conditions: read-out: IZ
Trichophyton longifusum = assay: Antifungal activity against Trichophyton longifusum at 200 ug/ml after 7 days; type: functional; conditions: 168 h
Aspergillus flavus = assay: Antifungal activity against Aspergillus flavus at 200 ug/ml after 7 days; type: functional; conditions: 168 h
[1] = Cytotoxicity against Artemia salina leach eggs; conditions: Egg, read-out: LD50 (the source's name)
Microsporum canis = assay: Antifungal activity against Microsporum canis at 200 ug/ml after 7 days; type: functional; conditions: 168 h
Escherichia coli = assay: Antibacterial activity against Escherichia coli at 50 ug/ml after 24 hrs by agar-well diffusion assay; type: functional; conditions: read-out: IZ
Bacillus subtilis = assay: Antibacterial activity against Bacillus subtilis at 50 ug/ml after 24 hrs by agar-well diffusion assay; type: functional; conditions: read-out: IZ
Candida albicans = assay: Antifungal activity against Candida albicans at 200 ug/ml after 7 days; type: functional; conditions: 168 h
Fusarium solani = assay: Antifungal activity against Fusarium solani at 200 ug/ml after 7 days; type: functional; conditions: 168 h
Staphylococcus aureus = assay: Antibacterial activity against Staphylococcus aureus at 50 ug/ml after 24 hrs by agar-well diffusion assay; type: functional; conditions: read-out: IZ
Nakaseomyces glabratus = assay: Antifungal activity against Candida glabrata at 200 ug/ml after 7 days; type: functional; conditions: 168 h

Compound	zone of inhibition at 50 µg/mL (Pseudomonas aeruginosa)	zone of inhibition at 50 µg/mL (Salmonella enterica)	zone of inhibition at 50 µg/mL (Shigella flexneri)	inhibition at 200 µg/mL (Trichophyton longifusum)	inhibition at 200 µg/mL (Aspergillus flavus)	LC50 [1]	inhibition at 200 µg/mL (Microsporum canis)	zone of inhibition at 50 µg/mL (Escherichia coli)	zone of inhibition at 50 µg/mL (Bacillus subtilis)	inhibition at 200 µg/mL (Candida albicans)	inhibition at 200 µg/mL (Fusarium solani)	zone of inhibition at 50 µg/mL (Staphylococcus aureus)	inhibition at 200 µg/mL (Nakaseomyces glabratus)	MIC (Aspergillus flavus)	MIC (Trichophyton longifusum)	MIC (Microsporum canis)	MIC (Candida albicans)	MIC (Fusarium solani)	MIC (Nakaseomyces glabratus)
Cc1cc(C)nc(NS(=O)(=O)c2ccc(/N=C/c3cc(Br)ccc3O)cc2)n1	13 mm	11 mm	6 mm	80%	38%	> 3.16 mM	73%	18 mm	15 mm	0%	20%	17 mm	0%	–	–	–	–	–	–
O=S(=O)(Nc1ncccn1)c1ccc(/N=C/c2cc(Br)ccc2O)cc1	12 mm	13 mm	8 mm	81%	78%	> 3.16 mM	0%	17 mm	15 mm	34%	48%	16 mm	80%	–	–	–	–	–	–
C[C@@H]1[C@H](O)[C@@H](C)/C=C/C=C/C=C/C=C/C=C/C=C/C=C/[C@H](O[C@@H]2O[C@H](C)[C@@H](O)[C@H](N)[C@@H]2O)C[C@@H]2O[C@](O)(C[C@@H](O)C[C@@H](O)[C@H](O)CC[C@@H](O)C[C@@H](O)CC(=O)O[C@H]1C)C[C@H](O)[C@H]2C(=O)O [AMPHOTERICIN B]	–	–	–	–	–	–	–	–	–	–	–	–	–	20 µg/mL (≈ 21.6 µM)	–	–	–	–	–
Clc1ccc(COC(Cn2ccnc2)c2ccc(Cl)cc2Cl)c(Cl)c1 (stereo not drawn) [MICONAZOLE]	–	–	–	–	–	–	–	–	–	–	–	–	–	–	70 µg/mL (≈ 168 µM)	98.4 µg/mL (≈ 236 µM)	111 µg/mL (≈ 266 µM)	111 µg/mL (≈ 266 µM)	73.2 µg/mL (≈ 176 µM)
C[C@@H](O)[C@H]1C(=O)N2C(C(=O)O)=C(SCCNC=N)C[C@H]12 [IMIPENEM ANHYDROUS]	24 mm	25 mm	20 mm	–	–	–	–	24 mm	26 mm	–	–	26 mm	–	–	–	–	–	–	–
